Results as given in patent US6444234B1, “Compositions for rapid and non-irritating transdermal delivery of pharmaceutically active agents and methods for formulating such compositions and delivery thereof” (priority 1998, dated 2002).

How the values were obtained:
[1] = Pilot trial on three hairless rats, blood samples after topical delivery system; format: in vivo, hairless rat
Description: A pilot trial is performed on three hairless rats, during which a baseline blood sample is drawn, then 1 ml of the topical delivery system containing a titrated dose of each of the three test drugs is administered to each of the rats. Samples are harvested at 30 and 60 minutes.

[2] = Laboratory solubilization of amitriptyline in the modified stock delivery system; format: physicochemical; settings: modified SDS; predicted amount within experimental error of the actual amount
Description: The following Table 4 illustrates how the balancing of molar van der Waals forces can be utilized as a predictor of the solubilization of amitriptyline in the stock delivery system. In this case the calculations for balancing molar van der Waals forces were made first using the Chem3D software and the solutions were thereafter formulated in the laboratory. The amount predicted to dissolve, 2.08 gm per 100 c.c., was within experimental error of the actual amount which would dissolve in the laboratory experiment. In this case, the system was balanced by increasing the amounts of methylsulfonylmethane and ethanol and decreasing the amount of propylene glycol.

[3] = format: physicochemical
Description: The following tables are typical data sheets generated by the Chem3D software. These charts confirm the independent experimental solubility data and also, in Tables 1-3, show how modulation of the carrier system allows a higher dose of the test medicament, Diosgenin (MW=414.61).
It is pointed out, however, that the formulations shown in the following Tables, and which are based on the above described Stock Delivery System, were originally prepared without benefit of the use of the Chem 3D software and included omission of several different modifiers. Modifications to the SDS to effect solubilization and increase solute solvent ratios were made by the inventor on the basis of knowledge of how and where the solute (drug) works in the body and using this information to make intuitive predictions of how the solute would interact with the surrounding molecules of the SDS, such as induced polarities relative to other molecules; induction of electric fields due to influence of surrounding molecules; hydrophobic versus hydrophilic properties, etc., while always taking into consideration the desired functional effects contributed by each ingredient. […]

[4] = Full-scale protocol trial on 15 hairless rats; settings: topical
Description: Samples for the morphine and acyclovir groups are taken at 30 minutes, 60 minutes and 120 minutes.

air pouch granulomas = assay: Murine Chronic Granulomatous Air-Pouch Model; format: in vivo, mouse; settings: normally sub-effective dose (30 mg/kg); decrease in dry weight of the granuloma
Description: This example describes the results of an animal (mouse) study performed at St. Bartholomew's and The Royal London School of Medicine and Dentistry, Department of Experimental Pathology, to establish the efficacy of the topical delivery system, based on the Stock Delivery System of this invention for transdermal delivery of Cystamine (2,2′-dithiobisethanamine). A Murine Chronic Granulomatous Air-Pouch Model was used for evaluation of the delivery of the drug with SDS versus a control vehicle alone; control vehicle plus drug; and SDS alone.
In this study, 1 milligram (mg) of cystamine was added to 0.5 cc of Standard Stock Solution (SDS) as previously described, or to a control vehicle (aqueous isopropanol). In each case, the active ingredient (cystamine) was administered in an amount of 30 mg per kilogram of body weight.
Mice (TO or BALB/c, for hormone studies, 30±5 g) were lightly anaesthetized with halothane. Three milliliters of air were injected subcutaneously into the scruff of the neck using a 25 G needle. The shape of the air pouch was controlled by manipulation during inflation. […]
Vascularity was assessed by a modified form (see Kimura et al, [need citation] 1986) of the Carmine Red Vascular Casting technique. […] The dye content was measured spectrophotometrically at 490 nm against a standard curve of dye from 1-100 μg/ml. […]

## Nc1nc2c(ncn2COCCO)c(=O)[nH]1 [Acyclovir]
[1]; hairless, rat, in vivo
  blood sample level, Baseline: 0

## CN(C)CCC=C1c2ccccc2CCc2ccccc21 [Amitriptyline]
[2]
  actual amount which would dissolve in the laboratory experiment: ~2.08 gm per 100 c.c.

## C[C@@H]1CC[C@@]2(OC1)O[C@H]1C[C@H]3[C@@H]4CC=C5C[C@@H](O)CC[C@]5(C)[C@H]4CC[C@]3(C)[C@H]1[C@@H]2C [Diosgenin, (25R)-Spirost-5-en-3β-ol]
[3]
  increase of solubilized dose: ~5 fold

## C[C@]12CC[C@H]3[C@@H](CCC4=CC(=O)CC[C@@]43C)[C@@H]1CC[C@@H]2O [Testosterone]
[4]; in one hour, 5 mg in 1 ml
  increase of testosterone levels: 10 fold
[1]; testosterone 5 mg in 1 ml, topical
  blood sample level, 30 minutes: 1,552 ng/dl

## NCCSSCCN [cystamine, 2,2′-dithiobisethanamine]
Air pouch granulomas
  efficacy of the dose when delivered with SDS: effective dose

## CN1CC[C@]23c4c5ccc(O)c4O[C@H]2[C@@H](O)C=C[C@H]3[C@H]1C5.O=S(=O)(O)O [morphine sulfate]
[4]; 2.5 mg dose of morphine
  blood levels compared with intravenous dosing: equivalent to a 10 mg IV dose
[1]; before 1 ml of the topical delivery system
  blood sample level, Baseline: 0
[1]; morphine 2.5 mg in 1 ml, topical
  blood sample level, 60 minutes: 45 nmol/L
